Reference: patent US20240043404A1 (AbbVie Inc., priority 2009, published 2024)
Where two headings read alike, the source gives them in different places.

Columns and labels:
[1] = target: Bcl-2 (Homo sapiens (Human), UniProt P10415); experiment: Time Resolved-Fluorescence Resonance Energy Transfer (TR-FRET) Bcl-2 binding assay
Protocol: The samples are then mixed on a shaker for 1 minute and incubated for an additional 3 hours at room temperature. For each assay, the probe/antibody and protein/probe/antibody were included on each assay plate as negative and positive controls, respectively.
The samples were then mixed on a shaker for 1 minute and incubated for an additional 3 hours at room temperature. For each assay, the probe/antibody and protein/probe/antibody were included on each assay plate as negative and positive controls, respectively.

[2] = tested on: RS4;11 cells; experiment: RS4;11 cell viability assay (CellTiter Glo); type: cell-based, human; conditions: Homo sapiens, read-out: RS4;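 further: acute lymphoblastic leukemia line RS4,11, EC50 derived from percentage of viable cells after treatment relative to untreated controls, cell killing taken as a measure of Bcl-2 inhibition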
Protocol: The acute lymphoblastic leukemia (ALL) cell line RS4;11 was used as the primary human cell line to assess the cellular activity of Bcl-2 selective agents in vitro and their efficacy in vivo.
Cell cytotoxicity EC50 values were assessed using CellTiter Glo (Promega) according to the manufacturer's recommendations. The EC50 values were determined as a percentage of viable cells following treatment compared to the untreated control cells.

[3] = Table 5, direct comparison Z=N with corresponding analogs Z=C, read-out: Bcl-2 FRET ki
[4] = RS4-11, 48 h, 50,000 cells per well, 10% human serum, 48 hours, 11 EC50 Values
[5] = RS4-11, Table 5, direct comparison Z=N with corresponding analogs Z=C, 11 EC50
[6] = GST-Bcl-2 1 nM, F-Bak peptide probe 100 nM, Tb-anti-GST 1 nM, < means below limit of detection, read-out: TR-FRET Bcl-2 Binding Ki

Bcl-2, sequence (P10415 whole entry): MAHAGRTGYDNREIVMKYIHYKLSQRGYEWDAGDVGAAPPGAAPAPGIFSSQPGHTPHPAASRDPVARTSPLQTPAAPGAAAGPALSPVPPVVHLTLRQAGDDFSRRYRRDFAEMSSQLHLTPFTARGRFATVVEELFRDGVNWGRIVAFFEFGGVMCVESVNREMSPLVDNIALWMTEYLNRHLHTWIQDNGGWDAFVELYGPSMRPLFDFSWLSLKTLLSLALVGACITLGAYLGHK

| Structure (SMILES) | Ki [1, 3] | EC50 [2, 4] | EC50 [2, 5] | Ki [1] | Ki [1, 6] |
| --- | --- | --- | --- | --- | --- |
| COCCNc1ccc(S(=O)(=O)NC(=O)c2ccc(N3CCN(CC4=C(c5ccc(Cl)cc5)CC(C)(C)CC4)CC3)cc2Oc2cnc3[nH]ccc3c2)cc1[N+](=O)[O-] [Example 10, 4-(4-{[2-(4-chlorophenyl)-4,4-dimethylcyclohex-1-en-1-yl]methyl}piperazin-1-yl)-N-({4-[(2-methoxyethyl)amino]-3-nitrophenyl}sulfonyl)-2-(1H-pyrrolo[2,3-b]pyridin-5-yloxy)benzamide] | < 0.01 nM | 52 nM | 52 nM |  |  |
| CC1(C)CCC(CN2CCN(c3ccc(C(=O)NS(=O)(=O)c4ccc(OC[C@H]5CC[C@@H](N6CCOCC6)C5)c([N+](=O)[O-])c4)c(Oc4cnc5[nH]ccc5c4)c3)CC2)=C(c2ccc(Cl)cc2)C1 (relative stereo) [Example 188] |  | 16.4 nM |  | < 0.01 nM |  |
| CC1(C)CCC(CN2CCN(c3ccc(C(=O)NS(=O)(=O)c4ccc(OCC5CCN(C6COC6)CC5)c([N+](=O)[O-])c4)c(Oc4cnc5[nH]ccc5c4)c3)CC2)=C(c2ccc(Cl)cc2)C1 [Example 191, 4-(4-{[2-(4-chlorophenyl)-4,4-dimethylcyclohex-1-en-1-yl]methyl}piperazin-1-yl)-N-({3-nitro-4-[(1-oxetan-3-ylpiperidin-4-yl)methoxy]phenyl}sulfonyl)-2-(1H-pyrrolo[2,3-b]pyridin-5-yloxy)benzamide] |  | 6.91 nM |  |  | < 0.01 nM |
| CC1(C)CCC(CN2CCN(c3ccc(C(=O)NS(=O)(=O)c4ccc(OC[C@H]5CC[C@H](O)CC5)c([N+](=O)[O-])c4)c(Oc4cnc5[nH]ccc5c4)c3)CC2)=C(c2ccc(Cl)cc2)C1 [Example 120, 2-(1H-pyrrolo[2,3-b]pyridin-5-yloxy)-4-(4-((2-(4-chlorophenyl)-4,4-dimethylcyclohex-1-enyl)methyl)piperazin-1-yl)-N-(4-((trans-4-hydroxycyclohexyl)methoxy)-3-nitrophenylsulfonyl)benzamide] |  | 1.47 nM |  |  | < 0.01 nM |
| CC1(C)CCC(CN2CCN(c3ccc(C(=O)NS(=O)(=O)c4ccc(NC[C@H]5CCCOC5)c([N+](=O)[O-])c4)c(Oc4cnc5[nH]ccc5c4)c3)CC2)=C(c2ccc(Cl)cc2)C1 [Example 13, 4-(4-{[2-(4-chlorophenyl)-4,4-dimethylcyclohex-1-en-1-yl]methyl}piperazin-1-yl)-N-[(3-nitro-4-{[(3R)-tetrahydro-2H-pyran-3-ylmethyl]amino}phenyl)sulfonyl]-2-(1H-pyrrolo[2,3-b]pyridin-5-yloxy)benzamide] | < 0.01 nM | 23.2 nM | 23 nM |  |  |
| CC1(C)CCC(CN2CCN(c3ccc(C(=O)NS(=O)(=O)c4ccc(OC[C@H]5CC[C@H](O)CC5)c([N+](=O)[O-])c4)c(Oc4cnc5[nH]ccc5c4)c3)CC2)=C(c2ccc(Cl)cc2)C1 [Example 196, Trans-4-(4-{[2-(4-chlorophenyl)-4,4-dimethylcyclohex-1-en-1-yl]methyl}piperazin-1-yl)-N-({4-[(4-hydroxycyclohexyl)methoxy]-3-nitrophenyl}sulfonyl)-2-(1H-pyrrolo[2,3-b]pyridin-5-yloxy)benzamide] |  |  |  |  | < 0.01 nM |
| CC1(C)CC(c2ccc(Cl)cc2)=C(CN2CCN(c3ccc(C(=O)NS(=O)(=O)c4ccc(NCC5CCOCC5)c([N+](=O)[O-])c4)c(Oc4cnc5[nH]ccc5c4)c3)CC2)CO1 [Example 15, 4-(4-{[4-(4-chlorophenyl)-6,6-dimethyl-5,6-dihydro-2H-pyran-3-yl]methyl}piperazin-1-yl)-N-({3-nitro-4-[(tetrahydro-2H-pyran-4-ylmethyl)amino]phenyl}sulfonyl)-2-(1H-pyrrolo[2,3-b]pyridin-5-yloxy)benzamide] | < 0.01 nM | 12.8 nM | 13 nM |  | < 0.01 nM |
| CN1CCC(Nc2ccc(S(=O)(=O)NC(=O)c3ccc(N4CCN(CC5=C(c6ccc(Cl)cc6)CC(C)(C)CC5)CC4)cc3Oc3cnc4[nH]ccc4c3)cc2[N+](=O)[O-])CC1 [Example 4, 4-(4-{[2-(4-chlorophenyl)-4,4-dimethylcyclohex-1-en-1-yl]methyl}piperazin-1-yl)-N-({4-[(1-methylpiperidin-4-yl)amino]-3-nitrophenyl}sulfonyl)-2-(1H-pyrrolo[2,3-b]pyridin-5-yloxy)benzamide] | < 0.01 nM | 18.5 nM | 19 nM |  |  |
| CC1(C)CCC(CN2CCN(c3ccc(C(=O)NS(=O)(=O)c4ccc(OCC5COCCO5)c([N+](=O)[O-])c4)c(Oc4cnc5[nH]ccc5c4)c3)CC2)=C(c2ccc(Cl)cc2)C1 (stereo not drawn) [Example 12, 4-(4-{[2-(4-chlorophenyl)-4,4-dimethylcyclohex-1-en-1-yl]methyl}piperazin-1-yl)-N-{[4-(1,4-dioxan-2-ylmethoxy)-3-nitrophenyl]sulfonyl}-2-(1H-pyrrolo[2,3-b]pyridin-5-yloxy)benzamide] | < 0.01 nM | 34.7 nM | 35 nM |  |  |
| CC1(C)CCC(CN2CCN(c3ccc(C(=O)NS(=O)(=O)c4ccc(OC[C@H]5CCN(C6COC6)C5)c([N+](=O)[O-])c4)c(Oc4cnc5[nH]ccc5c4)c3)CC2)=C(c2ccc(Cl)cc2)C1 [Example 184, 4-(4-{[2-(4-chlorophenyl)-4,4-dimethylcyclohex-1-en-1-yl]methyl}piperazin-1-yl)-N-[(3-nitro-4-{[(3S)-1-oxetan-3-ylpyrrolidin-3-yl]methoxy}phenyl)sulfonyl]-2-(1H-pyrrolo[2,3-b]pyridin-5-yloxy)benzamide] |  | 23.2 nM |  |  | < 0.01 nM |
| CC1(C)CCC(CN2CCN(c3ccc(C(=O)NS(=O)(=O)c4ccc(NCC5COCCN5)c([N+](=O)[O-])c4)c(Oc4cnc5[nH]ccc5c4)c3)CC2)=C(c2ccc(Cl)cc2)C1 (stereo not drawn) [Example 66, 4-(4-{[2-(4-chlorophenyl)-4,4-dimethylcyclohex-1-en-1-yl]methyl}piperazin-1-yl)-N-({4-[(morpholin-3-ylmethyl)amino]-3-nitrophenyl}sulfonyl)-2-(1H-pyrrolo[2,3-b]pyridin-5-yloxy)benzamide] |  | 18.9 nM |  |  |  |
| CC1(C)CCC(CN2CCN(c3ccc(C(=O)NS(=O)(=O)c4ccc(NCC5CCN(C6COC6)CC5)c([N+](=O)[O-])c4)c(Oc4cnc5[nH]ccc5c4)c3)CC2)=C(c2ccc(Cl)cc2)C1 [Example 163, 4-(4-{[2-(4-chlorophenyl)-4,4-dimethylcyclohex-1-en-1-yl]methyl}piperazin-1-yl)-N-[(3-nitro-4-{[(1-oxetan-3-ylpiperidin-4-yl)methyl]amino}phenyl)sulfonyl]-2-(1H-pyrrolo[2,3-b]pyridin-5-yloxy)benzamide] |  | 4.32 nM |  |  |  |
| CC1(C)CCC(CN2CCN(c3ccc(C(=O)NS(=O)(=O)c4cnc(NCC5CCOCC5)c(C#N)c4)c(Oc4cnc5[nH]ccc5c4)c3)CC2)=C(c2ccc(Cl)cc2)C1 [Example 106, 4-(4-{[2-(4-chlorophenyl)-4,4-dimethylcyclohex-1-en-1-yl]methyl}piperazin-1-yl)-N-({5-cyano-6-[(tetrahydro-2H-pyran-4-ylmethyl)amino]pyridin-3-yl}sulfonyl)-2-(1H-pyrrolo[2,3-b]pyridin-5-yloxy)benzamide] |  | 826 nM |  |  |  |
| CC1(C)CCC(CN2CCN(c3ccc(C(=O)NS(=O)(=O)c4ccc(NC5CCC6(CC5)OCCO6)c([N+](=O)[O-])c4)c(Oc4cnc5[nH]ccc5c4)c3)CC2)=C(c2ccc(Cl)cc2)C1 [Example 178, 4-(4-{[2-(4-chlorophenyl)-4,4-dimethylcyclohex-1-en-1-yl]methyl}piperazin-1-yl)-N-{[4-(1,4-dioxaspiro[4.5]dec-8-ylamino)-3-nitrophenyl]sulfonyl}-2-(1H-pyrrolo[2,3-b]pyridin-5-yloxy)benzamide] |  | 202 nM |  |  |  |
| CC1(C)CCC(CN2CCN(c3ccc(C(=O)NS(=O)(=O)c4ccc(NCCCN(C5CC5)C5COC5)c([N+](=O)[O-])c4)c(Oc4cnc5[nH]ccc5c4)c3)CC2)=C(c2ccc(Cl)cc2)C1 [Example 311, 4-(4-{[2-(4-chlorophenyl)-4,4-dimethylcyclohex-1-en-1-yl]methyl}piperazin-1-yl)-N-{[4-({3-[cyclopropyl(oxetan-3-yl)amino]propyl}amino)-3-nitrophenyl]sulfonyl}-2-(1H-pyrrolo[2,3-b]pyridin-5-yloxy)benzamide] |  | 35.8 nM |  |  |  |
| CC1(C)CCC(CN2CCN(c3ccc(C(=O)NS(=O)(=O)c4cc(F)c(OCC5(F)CCOCC5)c(F)c4)c(Oc4cnc5[nH]ccc5c4)c3)CC2)=C(c2ccc(Cl)cc2)C1 [Example 310, 4-(4-{[2-(4-chlorophenyl)-4,4-dimethylcyclohex-1-en-1-yl]methyl}piperazin-1-yl)-N-({3,5-difluoro-4-[(4-fluorotetrahydro-2H-pyran-4-yl)methoxy]phenyl}sulfonyl)-2-(1H-pyrrolo[2,3-b]pyridin-5-yloxy)benzamide] |  | > 1000 nM |  |  |  |
| CC1(C)CCC(CN2CCN(c3ccc(C(=O)NS(=O)(=O)c4cnc(OCC5CCc6nccn6C5)c(Cl)c4)c(Oc4cnc5[nH]ccc5c4)c3)CC2)=C(c2ccc(Cl)cc2)C1 (stereo not drawn) [Example 342, 4-(4-{[2-(4-chlorophenyl)-4,4-dimethylcyclohex-1-en-1-yl]methyl}piperazin-1-yl)-N-{[5-chloro-6-(5,6,7,8-tetrahydroimidazo[1,2-a]pyridin-6-ylmethoxy)pyridin-3-yl]sulfonyl}-2-(1H-pyrrolo[2,3-b]pyridin-5-yloxy)benzamide] |  | 50.9 nM |  |  |  |
| CO[C@H]1CC[C@H](CNc2ccc(S(=O)(=O)NC(=O)c3ccc(N4CCN(CC5=C(c6ccc(Cl)cc6)CCC6(CCCC6)C5)CC4)cc3Oc3cnc4[nH]ccc4c3)cc2[N+](=O)[O-])CC1 [Example 74, Trans-4-(4-{[8-(4-chlorophenyl)spiro[4.5]dec-7-en-7-yl]methyl}piperazin-1-yl)-N-[(4-{[(4-methoxycyclohexyl)methyl]amino}-3-nitrophenyl)sulfonyl]-2-(1H-pyrrolo[2,3-b]pyridin-5-yloxy)benzamide] |  | 57 nM |  |  |  |
